In US8269012B2, “Aminopyrazole triazolothiadiazole inhibitors of c-met protein kinase” (Vertex Pharmaceuticals Incorporated, priority 2009, dated 2012):

Columns and labels:
A549HGF cells = assay: Inhibition of tumor metastasis to the lungs, subcutaneous A549HGF tumors in SCID mice; format: in vivo
Experimental: Compound 3 was investigated for its ability to inhibit the metastasis of subcutaneously implanted tumors to the lungs of severe combined immunodeficient (SCID) mice. Accordingly, A549 cells (A549HGF-1m1115, transfected with hepatocyte growth factor, luciferase, and green fluorescent protein) were cultured in RPMI1640 medium (Invitrogen, Carlsbad, Calif.) supplemented with 10% fetal bovine serum (FBS) (Hyclone, Logan, Utah), 100 units/mL of penicillin, […] of streptomycin (Invitrogen, Carlsbad, Calif.), and 2 mM L-glutamine for fewer than 4 passages prior to implantation. […]
Female SCID mice were injected subcutaneously (s.c.) with 5×10^6 A549HGF cells into the right dorsal axillary region on Day 0. […] Ectopic tumor measurements were recorded twice a week for 3 weeks after the initiation of treatment.
In order to evaluate the anti-metastatic potential of Compound 3, at the termination of the study all animal lung tissues were harvested and lysed by homogenization for ex vivo quantification via luciferase luminescence.

[1] = test system: SNU-5 gastric cancer cells; assay: Inhibition of tumor growth of subcutaneously implanted SNU-5 cells in SCID mice; format: in vivo; conditions: all three dose levels tested (3, 10, 30 mg/kg/day)
Experimental: Compound 3 was investigated for its ability to inhibit tumor growth of subcutaneously implanted SNU-5 gastric cancer cells in severe combined immunodeficient (SCID) mice. SNU-5 cells (CRL-5973, American Type Culture Collection, Manassas, Va.) were cultured in ISCOVE's Modified Dulbecco's Medium (IMDM) (Invitrogen, Carlsbad, Calif.) supplemented with 10% fetal bovine serum (FBS) (Hyclone, Logan, Utah), 100 units/mL of penicillin, […] of streptomycin (Invitrogen, Carlsbad, Calif.), and 2 mM L-glutamine. Cells were cultured for fewer than 4 passages prior to implantation. Female SCID mice (Fox Chase SCID, CB-17, mice weighing 17 to 19 g obtained from Charles River Laboratories, Wilmington, MA) were injected subcutaneously (s.c.) with 5×10^6 SNU-5 cells into the right dorsal axillary region on Day 0. […]
Compound 3, formulated in a vehicle containing 30% (w/v) Propylene Glycol and 10% Solutol (Sigma-Aldrich, St Louis, Mo.) as a suspended homogenous form, was administered orally (p.o.) once daily (QD) at total daily doses of 3, 10, and 30 mg/kg/day for 14 days. Tumor volumes (calculated using the ellipsoid formula, […], where length and width represented the largest and smallest dimensions of the tumor, respectively) were recorded for two weeks after the initiation of treatment. […]

Cn1cc(Nc2nn3c(C(F)(F)c4ccc5ncccc5c4)nnc3s2)cn1 [Compound 3, 3-(Difluoro(quinolin-6-yl)methyl)-N-(1-methyl-1H-pyrazol-4-yl)-[1,2,4]triazolo[3,4-b][1,3,4]thiadiazol-6-amine]
formation of lung metastases (A549HGF cells; 60 mg/kg/day compared to vehicle controls, p<0.02): significantly inhibits the formation of lung metastases
change in primary A549 tumor cell growth at the site of implantation vs vehicle (A549HGF cells; 30 or 60 mg/kg/day p.o. QD, 22 days): no significant change
anti-tumor activity [1]: significant and dose-dependent anti-tumor activity
